A word on the bioavailability: it is the share of a dose that reaches the circulation, judged against a reference dose that is usually intravenous.

SMILES strings stand for the structures.

Data set [1] is described as follows: in vivo. The conditions noted are these: rat.
Experimental: (§1) Effect of palmitoylcarnitine chloride on the rectal absorption of drug entities. Experiments were performed with rats wherein each animal received an aqueous microenema applied to the rectal cavity. […] Blood levels were monitored and the amount of drug absorbed calculated against intravenous administration and expressed as percent bioavailability.
(§2) Concentration dependence of palmitoylcarnitine effect on rectal absorption of sodium cefoxitin, a β-lactam antibiotic. […] Blood samples were collected and assayed for sodium cefoxitin. The amount of drug absorbed is expressed as percent bioavailability as compared to intravenous administration.
(§3) Effect of various carnitine esters on rectal absorption of sodium cefoxitin, a β-lactam antibiotic, and cyclo(N-Ala-Tyr-D-Trp-Lys-Val-Phe)acetate, a polypeptide. […] Blood samples were collected and sodium cefoxitin or cyclo(N-AlA-TyR-D-Trp-Lys-Val-Phe)acetate assayed. The amount of drug absorbed is expressed as percent bioavailability versus intravenous administration.
(§4) Importance of carnitine-palmitoyl ester linkage in absorption promoting effects on rectal sodium cefoxitin absorption. […] Blood was collected and sodium cefoxitin measured. Absorption of sodium cefoxitin is expressed as percent bioavailability versus intravenous administration.
The nature of data set [2]: in vivo. The conditions noted are these: rat. The source holds these as a separate data set.
Experimental: Effect of palmitoylcarnitine chloride on small intestinal absorption of polypeptides. Experiments were performed with rats wherein each animal received an aqueous solution applied to the duodenal region. […] Blood levels were monitored and the amount of polypeptide absorbed calculated against intravenous administration and expressed as percent bioavailability.
For data set [3] the following is noted: rat, in vivo.
Experimental: as §1, §2, §3, §4
The nature of data set [4]: Rectal absorption of target drug from aqueous microenema, percent bioavailability versus intravenous administration. The conditions noted are these: carnitine without acyl ester.
Experimental: as §1, §2, §3, §4

As for `CC(C)[C@@H]1NC(=O)[C@H](CCCCN)NC(=O)[C@@H](Cc2c[nH]c3ccccc23)NC(=O)[C@H](Cc2ccc(O)cc2)NC(=O)[C@H](C)N(C)C(=O)[C@H](Cc2ccccc2)NC1=O` [#-363,586, cyclo(N--Me--Ala--Tyr--DTrp--Lys--Val--Phe)acetate], the bioavailability came out at 7 ± 3.5% in data set [1] (0.1 mg, pH 6, Percent Bioavailability (mean ± SD) Cyclo(N-Ala-Tyr-D-Trp-Lys-Val-Phe)acetate); 7 ± 3.5% in data set [1] (Percent Bioavailability (mean ± SD) Control); 100 ± 28.2% in data set [1] (Percent Bioavailability (mean ± SD) with Palmitoylcarnitine-Cl); 1% in data set [2].
With `C[N+](C)(C)CC(O)CC(=O)[O-]` (stereo not shown) [Carnitine], the “Sodium Cefoxitin Percent Bioavailability (mean ± SD)” value in data set [3] (pH 6) stood at 1 ± 0.6%. Also, the “absorption promoting effect of carnitine alone” value in data set [4] is on record as “no effect”.
`Nc1ccn([C@@H]2O[C@H](CO)[C@@H](O)[C@@H]2O)c(=O)n1` [Cytarabine]: in data set [3], the “Percent Bioavailability (mean ± SD) Control” value is 0.5 ± 0.1% and the “Percent Bioavailability (mean ± SD) with Palmitoylcarnitine-Cl” value stood at 9 ± 0.6%.
Consider `CCCCCCCCCCCCCCCC(=O)O` [Palmitic acid], for which the “Sodium Cefoxitin Percent Bioavailability (mean ± SD)” value in data set [3] (pH 6) worked out at 1 ± 0.8%.
Consider `CO[C@@]1(NC(=O)Cc2cccs2)C(=O)N2C(C(=O)O)=C(COC(N)=O)CS[C@@H]21` [Sodium cefoxitin], for which, in data set [3], the “Percent Bioavailability (mean ± SD) Control” value amounted to 2 ± 1.1% and the “Percent Bioavailability (mean ± SD) with Palmitoylcarnitine-Cl” value came out at 68 ± 7.2%. Also, in data set [3] (pH 6), the “Percent Bioavailability (mean ± SD) Sodium Cefoxitin” value turned out to be 2 ± 1.1%, the “Sodium Cefoxitin Percent Bioavailability (mean ± SD)” value came out at 2 ± 1.1% and the “Sodium Cefoxitin Percent Bioavailability mean ± SD” value amounted to 2 ± 1.1%.
For `Cn1c(=O)c2[nH]cnc2n(C)c1=O` [Theophylline], in data set [3], the “Percent Bioavailability (mean ± SD) Control” value was found to be 75 ± 3.3% and the “Percent Bioavailability (mean ± SD) with Palmitoylcarnitine-Cl” value was 75 ± 2.6%.

For the origin of these results see patent US4537772A, “Enhancing absorption of drugs from gastrointestinal tract using acylcarnitines” (Merck & Co., Inc., priority 1984, dated 1985).
